From US20060069132A1, “Azolecarboxamide herbicides” (priority 2004, published 2006)
Read-outs that look alike come from different tables or passages of the source.

Key:
barnyardgrass [1] = test: Test B pre-/postemergence herbicide test; type: in vivo, Echinochloa crus-galli; conditions: Echinochloa crus-galli; for pest or weed control at 500 g/ha: 500 g ai/ha; for pest or weed control at 125 g/ha: 125 g ai/ha
In short: (§1)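 Species tested were Echinochloa crus-galli, Ipomoea coccinea, Xanthium strumarium and Oryza sativa, treated both before emergence and at the 1- to 4-leaf stage; rice and barnyardgrass were also tested under flooding at 2 leaves. Greenhouse incubation lasted 13–15 days before visual 0–100 scoring.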

Surinam grass = test: Test B pre-/postemergence herbicide test; type: in vivo, Urochloa decumbens; conditions: Urochloa decumbens; for pest or weed control at 500 g/ha: 500 g ai/ha; for pest or weed control at 125 g/ha: 125 g ai/ha
In short: (§2)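 Evaluation is visual, comparing treated with control plants on a scale where 0 means no effect and 100 means full control. Treatments were preemergence, or postemergence on seedlings 2–18 cm tall, and held 13–15 days in the greenhouse.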

cocklebur = test: Test B pre-/postemergence herbicide test; type: in vivo, Xanthium strumarium; conditions: Xanthium strumarium; for pest or weed control at 500 g/ha: 500 g ai/ha; for pest or weed control at 125 g/ha: 125 g ai/ha
In short: as §1

corn = test: Test B pre-/postemergence herbicide test; type: in vivo, Zea mays; conditions: Zea mays
In short: as §2

large crabgrass = test: Test B pre-/postemergence herbicide test; type: in vivo, Digitaria sanguinalis; conditions: Digitaria sanguinalis; for pest or weed control at 500 g/ha: 500 g ai/ha; for pest or weed control at 125 g/ha: 125 g ai/ha
In short: as §2

giant foxtail = test: Test B pre-/postemergence herbicide test; type: in vivo, Setaria faberi; conditions: Setaria faberi, 336 h; for pest or weed control at 500 g/ha: 500 g ai/ha; for pest or weed control at 125 g/ha: 125 g ai/ha
In short: as §2

lambsquarters = test: Test B pre-/postemergence herbicide test; type: in vivo, Chenopodium album; conditions: Chenopodium album, 336 h; for pest or weed control at 500 g/ha: 500 g ai/ha; for pest or weed control at 125 g/ha: 125 g ai/ha
In short: as §2

morningglory = test: Test B pre-/postemergence herbicide test; type: in vivo, Ipomoea coccinea; conditions: Ipomoea, 336 h; for pest or weed control at 500 g/ha: 500 g ai/ha; for pest or weed control at 125 g/ha: 125 g ai/ha
In short: as §1

pigweed = test: Test B pre-/postemergence herbicide test; type: in vivo, Amaranthus retroflexus; conditions: Amaranthus retroflexus, 336 h; for pest or weed control at 500 g/ha: 500 g ai/ha; for pest or weed control at 125 g/ha: 125 g ai/ha
In short: as §2

blackgrass = test: Test B postemergence herbicide test; type: in vivo, Alopecurus myosuroides; conditions: Postemergence, 500 g ai/ha; visual rating after 13 to 15 days, scale 0 (no effect) to 100 (complete control)
In short: (§3)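 Plants grow to 1- to 4-leaf stage (2–18 cm) for postemergence spraying, or to 2-leaf stage for the paddy test. Formulated compound is applied. Greenhouse holding lasts 13–15 days. Response is scored visually relative to controls, 0 no effect to 100 complete control; a dash means no result.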

wheat = test: Test B postemergence herbicide test; type: in vivo, Triticum aestivum; conditions: scale 0 (no effect) to 100 (complete control)
In short: (§4)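 After treating 2-leaf paddy plants or 2–18 cm postemergence plants (1 to 4 leaves) with formulated chemical, researchers kept them in a greenhouse for 13–15 days. Effects were judged visually versus controls: 0 indicates none, 100 total control.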

wild oat = test: Test B postemergence herbicide test; type: in vivo, Avena fatua; conditions: scale 0 (no effect) to 100 (complete control)
In short: as §4

rice = test: Test B flooded paddy test; type: in vivo, Oryza sativa; conditions: Oryza sativa, 336 h, 1000 g ai/ha, visual rating, scale 0 to 100 (0 no effect, 100 complete control), 13 to 15 days, read-out: Rice plant response rating
In short: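 Each value is a visual 0–100 response rating taken against controls 13 to 15 days after treatment in the greenhouse. Plants received formulated chemical postemergence at the 1- to 4-leaf stage or, in flooded paddy, at the 2-leaf stage.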

[2] = tested on: small flower umbrella sedge; test: Test B flooded paddy test; type: in vivo, Cyperus difformis; conditions: Cyperus difformis, 336 h, 1000 g ai/ha, visual rating, scale 0 to 100 (0 no effect, 100 complete control), 13 to 15 days, read-out: Sedge, Umbrella plant response rating
In short: as §3

ducksalad = test: Test B flooded paddy test; type: in vivo, Heteranthera limosa; conditions: Heteranthera limosa, 336 h, 1000 g ai/ha, visual rating, scale 0 to 100 (0 no effect, 100 complete control), 13 to 15 days, read-out: Ducksalad plant response rating
In short: as §3

barnyardgrass [3] = test: Test B flooded paddy test; type: in vivo, Echinochloa crus-galli; conditions: Echinochloa crus-galli, 336 h, 1000 g ai/ha, visual rating, scale 0 to 100 (0 no effect, 100 complete control), 13 to 15 days, read-out: Barnyardgrass plant response rating
In short: as §3

[4] = Postemergence, 500 g ai/ha, visual rating after 13 to 15 days

With `CCn1nc(C(C)(C)C)cc1C(=O)Nc1cccc2c1CN(C)C2=O` [Compound 55, N-(2,3-dihydro-2-methyl-1-oxo-1H-isoindol-4-yl)-3-(1,1-dimethylethyl)-1-ethyl-1H-pyrazole-5-carboxamide] the pest or weed control at 500 g/ha (barnyardgrass [1]; post-emergence, Postemergence, visual rating after 13 to 15 days, scale 0 (no effect) to 100 (complete control), read-out: Plant response rating, Barnyardgrass) was 10%, the pest or weed control at 125 g/ha (barnyardgrass [1]; post-emergence, postemergence, visual rating, scale 0 (no effect) to 100 (complete control), read-out: Barnyardgrass plant response rating) was 10% and the pest or weed control at 500 g/ha (barnyardgrass [1]; pre-emergence, Preemergence, scale 0 to 100, read-out: Barnyardgrass plant response rating) was 100%. The pest or weed control at 125 g/ha (barnyardgrass [1]; pre-emergence, preemergence, 0 to 100 scale, 0 is no effect, 100 is complete control, read-out: Plant response rating, Barnyardgrass) was 80%, the pest or weed control at 500 g/ha (Surinam grass; post-emergence, Postemergence, visual rating after 13 to 15 days, scale 0 (no effect) to 100 (complete control), read-out: Plant response rating, Surinam Grass) was 10% and the pest or weed control at 125 g/ha (Surinam grass; post-emergence, postemergence, visual rating, scale 0 (no effect) to 100 (complete control), read-out: Surinam Grass plant response rating) was 10%. For the same compound, the pest or weed control at 500 g/ha (Surinam grass; pre-emergence, Preemergence, scale 0 to 100, read-out: Surinam Grass plant response rating) was 80%, the pest or weed control at 125 g/ha (Surinam grass; pre-emergence, preemergence, 0 to 100 scale, 0 is no effect, 100 is complete control, read-out: Plant response rating, Surinam Grass) was 50% and the pest or weed control at 500 g/ha (cocklebur; post-emergence, Postemergence, visual rating after 13 to 15 days, scale 0 (no effect) to 100 (complete control), read-out: Plant response rating, Cocklebur) was 40%. It also gave a pest or weed control at 125 g/ha (cocklebur; post-emergence, postemergence, visual rating, scale 0 (no effect) to 100 (complete control), read-out: Cocklebur plant response rating) of 10%, a pest or weed control at 500 g/ha (cocklebur; pre-emergence, Preemergence, scale 0 to 100, read-out: Cocklebur plant response rating) of 10% and a pest or weed control at 125 g/ha (cocklebur; pre-emergence, preemergence, 0 to 100 scale, 0 is no effect, 100 is complete control, read-out: Plant response rating, Cocklebur) of 0%. For the same compound, the Corn plant response rating (crop injury, 0 = no effect, 100 = complete kill) at 500 g/ha (corn; post-emergence, Postemergence, 500 g ai/ha, visual rating after 13 to 15 days, scale 0 (no effect) to 100 (complete control)) was 30%, the plant injury at 125 g/ha (corn; post-emergence, postemergence, 125 g ai/ha, visual rating, scale 0 (no effect) to 100 (complete control), read-out: Corn plant response rating) was 20% and the plant injury at 500 g/ha (corn; pre-emergence, Preemergence, 500 g ai/ha, scale 0 to 100, read-out: Corn plant response rating) was 20%. The Corn plant response rating (crop injury, 0 = no effect, 100 = complete kill) at 125 g/ha (corn; pre-emergence, preemergence, 125 g ai/ha, 0 to 100 scale, 0 is no effect, 100 is complete control) was 0%, the pest or weed control at 500 g/ha (large crabgrass; post-emergence, Postemergence, visual rating after 13 to 15 days, scale 0 (no effect) to 100 (complete control), read-out: Plant response rating, Crabgrass, Large) was 10% and the pest or weed control at 125 g/ha (large crabgrass; post-emergence, postemergence, visual rating, scale 0 (no effect) to 100 (complete control), read-out: Crabgrass, Large plant response rating) was 10%. It also gave a pest or weed control at 500 g/ha (large crabgrass; pre-emergence, Preemergence, scale 0 to 100, read-out: Crabgrass, Large plant response rating) of 100%, a pest or weed control at 125 g/ha (large crabgrass; pre-emergence, preemergence, 0 to 100 scale, 0 is no effect, 100 is complete control, read-out: Plant response rating, Crabgrass, Large) of 90% and a pest or weed control at 500 g/ha (giant foxtail; post-emergence, Postemergence, visual rating after 13 to 15 days, scale 0 (no effect) to 100 (complete control), read-out: Plant response rating, Foxtail, Giant) of 10%. For the same compound, the pest or weed control at 125 g/ha (giant foxtail; post-emergence, postemergence, visual rating, scale 0 (no effect) to 100 (complete control), read-out: Foxtail, Giant plant response rating) was 0%, the pest or weed control at 500 g/ha (giant foxtail; pre-emergence, Preemergence, scale 0 to 100, read-out: Foxtail, Giant plant response rating) was 100% and the pest or weed control at 125 g/ha (giant foxtail; pre-emergence, preemergence, 0 to 100 scale, 0 is no effect, 100 is complete control, read-out: Plant response rating, Foxtail, Giant) was 60%. It also gave a pest or weed control at 500 g/ha (lambsquarters; post-emergence, Postemergence, visual rating after 13 to 15 days, scale 0 (no effect) to 100 (complete control), read-out: Plant response rating, Lambsquarters) of 70%, a pest or weed control at 125 g/ha (lambsquarters; post-emergence, postemergence, visual rating, scale 0 (no effect) to 100 (complete control), read-out: Lambsquarters plant response rating) of 70% and a pest or weed control at 500 g/ha (lambsquarters; pre-emergence, Preemergence, scale 0 to 100, read-out: Lambsquarters plant response rating) of 100%. It also gave a pest or weed control at 125 g/ha (lambsquarters; pre-emergence, preemergence, 0 to 100 scale, 0 is no effect, 100 is complete control, read-out: Plant response rating, Lambsquarters) of 70%, a pest or weed control at 500 g/ha (morningglory; post-emergence, Postemergence, visual rating after 13 to 15 days, scale 0 (no effect) to 100 (complete control), read-out: Plant response rating, Morningglory) of 10% and a pest or weed control at 125 g/ha (morningglory; post-emergence, postemergence, visual rating, scale 0 (no effect) to 100 (complete control), read-out: Morningglory plant response rating) of 10%. It also gave a pest or weed control at 500 g/ha (morningglory; pre-emergence, Preemergence, scale 0 to 100, read-out: Morningglory plant response rating) of 10%, a pest or weed control at 125 g/ha (morningglory; pre-emergence, preemergence, 0 to 100 scale, 0 is no effect, 100 is complete control, read-out: Plant response rating, Morningglory) of 0% and a pest or weed control at 500 g/ha (pigweed; post-emergence, Postemergence, visual rating after 13 to 15 days, scale 0 (no effect) to 100 (complete control), read-out: Plant response rating, Pigweed) of 40%. It also gave a pest or weed control at 125 g/ha (pigweed; post-emergence, postemergence, visual rating, scale 0 (no effect) to 100 (complete control), read-out: Pigweed plant response rating) of 10%, a pest or weed control at 500 g/ha (pigweed; pre-emergence, Preemergence, scale 0 to 100, read-out: Pigweed plant response rating) of 100% and a pest or weed control at 125 g/ha (pigweed; pre-emergence, preemergence, 0 to 100 scale, 0 is no effect, 100 is complete control, read-out: Plant response rating, Pigweed) of 80%. For the same compound, the “Plant response rating, Blackgrass” value (blackgrass) was 10, the “Plant response rating, Wheat” value (wheat; [4]) was 10 and the plant injury at 125 g/ha (wheat; Triticum aestivum, post-emergence, 336 h, postemergence, 125 g ai/ha, visual rating, read-out: Wheat plant response rating) was 10%. The pest or weed control at 125 g/ha (wild oat; Avena fatua, post-emergence, 336 h, postemergence, 125 g ai/ha, visual rating, read-out: Oat, Wild plant response rating) was 10%, the “Plant response rating, Oat, Wild” value (wild oat; [4]) was 20 and the plant injury at 1000 g/ha (rice) was 70%. The pest or weed control at 1000 g/ha [2] was 80%, the pest or weed control at 1000 g/ha (ducksalad) was 80% and the pest or weed control at 1000 g/ha (barnyardgrass [3]) was 90%.
